Assay results as given in US9302999B2, “Substituted triazoles as herbicides” (E. I. DU PONT DE NEMOURS AND COMPANY, priority 2012, dated 2016).

Key:
Type in all cases: in vivo
[1] = test system: foxtail, green (green foxtail, Setaria viridis); experiment: Test D pre-/postemergence: foxtail, green
Method in brief: (§1)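 Visual 0–100 rating versus untreated controls (0 no effect, 100 complete control), taken 14 to 21 days after treatment in a controlled growth environment. Preemergence: silt loam soil. Postemergence: peat moss/vermiculite medium, plants 2 to 18 cm, 1- to 4-leaf stage. Solvent mixture with surfactant.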

[2] = test system: bluegrass (annual bluegrass, Poa annua); experiment: Test D pre-/postemergence: bluegrass
Method in brief: as §1

[3] = test system: oat, wild (wild oat, Avena fatua); experiment: Test D pre-/postemergence: oat, wild
Description: (§2) Seeds of plant species selected from bluegrass (annual bluegrass, Poa annua), blackgrass (Alopecurus myosuroides), canarygrass (Phalaris minor), chickweed (common chickweed, Stellaria media), galium (catchweed bedstraw, Galium aparine), bromegrass, downy (downy bromegrass, Bromus tectorum), field poppy (Papaver rhoeas), field violet (Viola arvensis), foxtail, green (green foxtail, Setaria viridis), deadnettle (henbit deadnettle, Lamium amplexicaule), ryegrass, Italian (Italian ryegrass, Lolium multiflorum), kochia (Kochia scoparia), lambsquarters (Chenopodium album), oilseed rape (Brassica napus), pigweed (Amaranthus retroflexus), Russian thistle (Salsola iberica), chamomile (scentless chamomile, Matricaria inodora), speedwell (bird's-eye speedwell, Veronica persica), barley, spring (spring barley, Hordeum vulgare), wheat, spring (spring wheat, Triticum aestivum), buckwheat, wild (wild buckwheat, Polygonum convolvulus), mustard, wild (wild mustard, Sinapis arvensis), oat, wild (wild oat, Avena fatua), radish, wild (wild radish, Raphanus raphanistrum), windgrass (Apera spica-venti), barley, winter (winter barley, Hordeum vulgare), and wheat, winter (winter wheat, Triticum aestivum) were planted into a silt loam soil and treated preemergence with test chemicals formulated in a non-phytotoxic solvent mixture which included a surfactant. At the same time, these same crop and weed species were planted in pots containing the planting medium comprising spaghnum peat moss, vermiculite, wetting agent and starter nutrients and treated with postemergence applications of the test chemicals formulated in the same manner. Plants ranged in height from 2 to 18 cm (1- to 4-leaf stage).
(§3) Treated plants and controls were maintained in a controlled growth environment for 14 to 21 days after which time all species were compared to controls and visually evaluated. Plant response ratings, summarized in Table D, are based on a scale of 0 to 100 where 0 is no effect and 100 is complete control. A dash (-) response means no test result.

[4] = test system: speedwell (bird's-eye speedwell, Veronica persica); experiment: Test D pre-/postemergence: speedwell; conditions: for Plant response rating, Speedwell: 16 g ai/ha
Method in brief: as §1

[5] = test system: pigweed (Amaranthus retroflexus); experiment: Test D pre-/postemergence: pigweed
Method in brief: as §1

[6] = test system: windgrass (Apera spica-venti); experiment: Test D pre-/postemergence: windgrass
Description: as §2, §3

[7] = Postemergence, 31 g ai/ha, scale 0 to 100 (0 no effect, 100 complete control)
[8] = Postemergence, 62 g ai/ha, scale 0 to 100 (0 no effect, 100 complete control)
[9] = Postemergence, 125 g ai/ha, scale 0 to 100, 0 no effect, 100 complete control
[10] = Postemergence, 250 g ai/ha, scale 0 to 100 (0 no effect, 100 complete control)
[11] = Postemergence, 16 g ai/ha, scale 0 to 100
[12] = Preemergence, 31 g ai/ha, scale 0 to 100, 0 no effect, 100 complete control
[13] = Preemergence, 62 g ai/ha, scale 0 to 100
[14] = Preemergence, 125 g ai/ha, scale 0 to 100
[15] = Preemergence, 250 g ai/ha, scale 0 to 100
[16] = Preemergence, 16 g ai/ha, scale 0 to 100, 0 no effect, 100 complete control

SMILES: Cc1nn(-c2ccc(C(F)(F)F)cn2)nc1Cc1cccc(C(F)(F)F)c1 [Compound 106]
- Plant response rating: Foxtail, Green [1, 7]: 10
- Plant response rating: Foxtail, Green [1, 8]: 20
- Plant response rating: Foxtail, Green [1, 9]: 30
- Plant response rating: Foxtail, Green [1, 10]: 40
- Plant response rating, Foxtail, Green [1, 11]: 0
- Plant response rating, Foxtail, Green [1, 12]: 0
- Plant response rating, Foxtail, Green [1, 13]: 0
- Plant response rating, Foxtail, Green [1, 14]: 0
- Plant response rating, Foxtail, Green [1, 15]: 100
- Plant response rating: Bluegrass [2, 7]: 10
- Plant response rating: Bluegrass [2, 8]: 10
- Plant response rating: Bluegrass [2, 9]: 15
- Plant response rating: Bluegrass [2, 10]: 30
- Plant response rating, Bluegrass [2, 11]: 10
- Plant response rating, Bluegrass [2, 13]: 0
- Plant response rating, Bluegrass [2, 14]: 0
- Plant response rating, Bluegrass [2, 15]: 0
- Plant response rating: Oat, Wild [3, 7]: 5
- Plant response rating: Oat, Wild [3, 8]: 5
- Plant response rating: Oat, Wild [3, 9]: 5
- Plant response rating: Oat, Wild [3, 10]: 20
- Plant response rating, Oat, Wild [3, 11]: 0
- Plant response rating, Oat, Wild [3, 12]: 0
- Plant response rating, Oat, Wild [3, 13]: 0
- Plant response rating, Oat, Wild [3, 14]: 10
- Plant response rating, Oat, Wild [3, 15]: 10
- Plant response rating: Speedwell [4, 7]: 0
- Plant response rating: Speedwell [4, 8]: 0
- Plant response rating: Speedwell [4, 9]: 90
- Plant response rating: Speedwell [4, 10]: 90
- Plant response rating, Speedwell ([4]; Postemergence, scale 0 to 100): 0
- Plant response rating: Pigweed [5, 7]: 50
- Plant response rating: Pigweed [5, 8]: 60
- Plant response rating: Pigweed [5, 9]: 90
- Plant response rating: Pigweed [5, 10]: 90
- Plant response rating, Pigweed [5, 11]: 10
- Plant response rating, Pigweed [5, 12]: 0
- Plant response rating, Pigweed [5, 13]: 0
- Plant response rating, Pigweed [5, 14]: 20
- Plant response rating, Pigweed [5, 15]: 40
- Plant response rating: Windgrass [6, 7]: 10
- Plant response rating: Windgrass [6, 8]: 25
- Plant response rating: Windgrass [6, 9]: 35
- Plant response rating: Windgrass [6, 10]: 50
- Plant response rating, Windgrass [6, 11]: 5
- Plant response rating, Windgrass [6, 12]: 5
- Plant response rating, Windgrass [6, 13]: 5
- Plant response rating, Windgrass [6, 14]: 25
- Plant response rating, Windgrass [6, 15]: 80

SMILES: Cc1nn(-c2ccc(C(F)(F)F)cc2)nc1Oc1ccnc(C(F)(F)F)c1 [Compound 120]
- Plant response rating: Foxtail, Green [1, 7]: 15
- Plant response rating: Foxtail, Green [1, 8]: 80
- Plant response rating: Foxtail, Green [1, 9]: 95
- Plant response rating: Foxtail, Green [1, 10]: 100
- Plant response rating, Foxtail, Green [1, 11]: 5
- Plant response rating, Foxtail, Green [1, 16]: 70
- Plant response rating, Foxtail, Green [1, 12]: 100
- Plant response rating, Foxtail, Green [1, 13]: 100
- Plant response rating, Foxtail, Green [1, 14]: 100
- Plant response rating, Foxtail, Green [1, 15]: 100
- Plant response rating: Bluegrass [2, 7]: 10
- Plant response rating: Bluegrass [2, 8]: 40
- Plant response rating: Bluegrass [2, 9]: 70
- Plant response rating: Bluegrass [2, 10]: 95
- Plant response rating, Bluegrass [2, 11]: 10
- Plant response rating, Bluegrass [2, 16]: 0
- Plant response rating, Bluegrass [2, 12]: 100
- Plant response rating, Bluegrass [2, 13]: 100
- Plant response rating, Bluegrass [2, 14]: 100
- Plant response rating, Bluegrass [2, 15]: 100
- Plant response rating: Oat, Wild [3, 7]: 10
- Plant response rating: Oat, Wild [3, 8]: 20
- Plant response rating: Oat, Wild [3, 9]: 35
- Plant response rating: Oat, Wild [3, 10]: 70
- Plant response rating, Oat, Wild [3, 11]: 10
- Plant response rating, Oat, Wild [3, 16]: 0
- Plant response rating, Oat, Wild [3, 12]: 5
- Plant response rating, Oat, Wild [3, 13]: 25
- Plant response rating, Oat, Wild [3, 14]: 55
- Plant response rating, Oat, Wild [3, 15]: 100
- Plant response rating: Speedwell [4, 7]: 100
- Plant response rating: Speedwell [4, 8]: 100
- Plant response rating: Speedwell [4, 9]: 100
- Plant response rating: Speedwell [4, 10]: 100
- Plant response rating, Speedwell ([4]; Postemergence, scale 0 to 100): 60
- Plant response rating, Speedwell ([4]; Preemergence, scale 0 to 100, 0 no effect, 100 complete control): 0
- Plant response rating: Pigweed [5, 7]: 90
- Plant response rating: Pigweed [5, 8]: 90
- Plant response rating: Pigweed [5, 9]: 100
- Plant response rating: Pigweed [5, 10]: 100
- Plant response rating, Pigweed [5, 11]: 0
- Plant response rating, Pigweed [5, 16]: 30
- Plant response rating, Pigweed [5, 12]: 100
- Plant response rating, Pigweed [5, 13]: 100
- Plant response rating, Pigweed [5, 14]: 100
- Plant response rating, Pigweed [5, 15]: 100
- Plant response rating: Windgrass [6, 7]: 15
- Plant response rating: Windgrass [6, 8]: 95
- Plant response rating: Windgrass [6, 9]: 100
- Plant response rating: Windgrass [6, 10]: 100
- Plant response rating, Windgrass [6, 11]: 5
- Plant response rating, Windgrass [6, 16]: 0
- Plant response rating, Windgrass [6, 12]: 80
- Plant response rating, Windgrass [6, 13]: 100
- Plant response rating, Windgrass [6, 14]: 100
- Plant response rating, Windgrass [6, 15]: 100

SMILES: COc1nn(-c2ccc(C(F)(F)F)cc2)nc1Cc1ccnc(C(F)F)c1 [Compound 138]
- Plant response rating: Foxtail, Green [1, 7]: 40
- Plant response rating: Foxtail, Green [1, 8]: 75
- Plant response rating: Foxtail, Green [1, 9]: 80
- Plant response rating: Foxtail, Green [1, 10]: 100
- Plant response rating, Foxtail, Green [1, 11]: 20
- Plant response rating: Bluegrass [2, 7]: 30
- Plant response rating: Bluegrass [2, 8]: 50
- Plant response rating: Bluegrass [2, 9]: 70
- Plant response rating: Bluegrass [2, 10]: 85
- Plant response rating, Bluegrass [2, 11]: 20
- Plant response rating: Oat, Wild [3, 7]: 20
- Plant response rating: Oat, Wild [3, 8]: 30
- Plant response rating: Oat, Wild [3, 9]: 50
- Plant response rating: Oat, Wild [3, 10]: 75
- Plant response rating, Oat, Wild [3, 11]: 10
- Plant response rating: Speedwell [4, 7]: 80
- Plant response rating: Speedwell [4, 8]: 90
- Plant response rating: Speedwell [4, 9]: 98
- Plant response rating: Speedwell [4, 10]: 100
- Plant response rating, Speedwell ([4]; Postemergence, scale 0 to 100): 80
- Plant response rating: Pigweed [5, 7]: 95
- Plant response rating: Pigweed [5, 8]: 95
- Plant response rating: Pigweed [5, 9]: 100
- Plant response rating: Pigweed [5, 10]: 100
- Plant response rating, Pigweed [5, 11]: 90
- Plant response rating: Windgrass [6, 8]: 50
- Plant response rating: Windgrass [6, 9]: 60
- Plant response rating: Windgrass [6, 10]: 90
- Plant response rating, Windgrass [6, 11]: 15
- Plant response rating, Windgrass ([6]; Postemergence, 31 g ai/ha, scale 0 to 100): 30
